Laboratory results published in paper PMC5663982, “Imaging the Antistaphylococcal Activity of CATH-2: Mechanism of Attack and Regulation of Inflammatory Response” (mSphere, 2017).

Molecular target: T1, CATH-2 (chicken cathelicidin-2) (Gallus gallus, UniProt Q2IAL7)
T1 construct: gene CATHL2; Fmoc synthesis, unlabelled; cut from the cathelicidin-2 precursor
T1 sequence (Q2IAL7 128-153): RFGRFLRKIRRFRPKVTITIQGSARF
Test: isothermal titration calorimetry
Format: binding
Conditions: PBS, 1.5% ethanol, 20 °C; 400 µM CATH-2 titrated into 200 µM cardiolipin (Sigma-Aldrich, source and acyl chains not told); n = 2, SEM; lipid suspension
Excerpt: isothermal titration calorimetry on CATH-2 (chicken cathelicidin-2)

Kd: 72.1 ± 57.1 nM
Substance: cardiolipin
